Data reported in PubChem BioAssay (NCI).
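Growth conditions: 96-well plates. Treatment: test compound, 48 hours, 5 concentrations. Analysis: linear interpolation between bracketing concentrations; unreached endpoints set to highest concentration. Here, GI50 denotes the concentration required for 50% inhibition of growth. At the TGI there is no net growth.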

Assays:
Assay in all cases: growth of human tumour cells (NCI), 48 h; in the data active = GI50 below about 0.43 µM; inactive = the rest
NCI-H522 lung = tested on: NCI-H522 lung
IGROV1 ovarian = tested on: IGROV1 ovarian
SF-295 CNS = tested on: SF-295 CNS
786-0 renal = tested on: 786-0 renal
SF-268 CNS = tested on: SF-268 CNS
HT29 colon = tested on: HT29 colon
HCC-2998 colon = tested on: HCC-2998 colon
SNB-75 CNS = tested on: SNB-75 CNS
COLO 205 colon = tested on: COLO 205 colon
SR leukemia = tested on: SR leukemia
MOLT-4 leukemia = tested on: MOLT-4 leukemia
MDA-MB-231 breast = tested on: MDA-MB-231 breast
NCI/ADR-RES ovarian = tested on: NCI/ADR-RES ovarian
NCI-H23 lung = tested on: NCI-H23 lung
BT-549 breast = tested on: BT-549 breast
MCF7 breast = tested on: MCF7 breast
HL-60(TB) leukemia = tested on: HL-60(TB) leukemia
KM12 colon = tested on: KM12 colon
M14 melanoma = tested on: M14 melanoma
LOX IMVI melanoma = tested on: LOX IMVI melanoma
RXF 393 renal = tested on: RXF 393 renal
RPMI-8226 leukemia = tested on: RPMI-8226 leukemia
PC-3 prostate = tested on: PC-3 prostate
MDA-MB-435 = tested on: MDA-MB-435
UACC-257 melanoma = tested on: UACC-257 melanoma
CAKI-1 renal = tested on: CAKI-1 renal
EKVX NSCLC = tested on: EKVX NSCLC
UO-31 renal = tested on: UO-31 renal
OVCAR-3 ovarian = tested on: OVCAR-3 ovarian

O=C(/C=C/c1c(-c2ccccc2)[nH]c2ccccc12)S(=O)(=O)c1ccccc1
inactive: GI50 (IGROV1 ovarian) 24.3 µM | GI50 (SF-295 CNS) 0.818 µM | GI50 (786-0 renal) 52.6 µM | GI50 (SF-268 CNS) 6.24 µM | GI50 (HT29 colon) 3.76 µM | GI50 (HCC-2998 colon) 17.5 µM | GI50 (SNB-75 CNS) 3.96 µM | GI50 (COLO 205 colon) 6 µM | GI50 (SR leukemia) 2.42 µM | GI50 (MOLT-4 leukemia) 4.78 µM | GI50 (MDA-MB-231 breast) 16.6 µM | GI50 (NCI/ADR-RES ovarian) 3.19 µM | GI50 (NCI-H23 lung) 13.6 µM | GI50 (BT-549 breast) 5.33 µM | GI50 (MCF7 breast) 3.09 µM | GI50 (HL-60(TB) leukemia) 5.6 µM | GI50 (KM12 colon) 2.03 µM | GI50 (M14 melanoma) 5.86 µM | GI50 (LOX IMVI melanoma) > 100 µM | GI50 (RXF 393 renal) 9.34 µM | GI50 (RPMI-8226 leukemia) 13.3 µM | GI50 (PC-3 prostate) 8.15 µM | GI50 (MDA-MB-435) 1.73 µM | GI50 (UACC-257 melanoma) > 100 µM | GI50 (CAKI-1 renal) 6.42 µM | GI50 (EKVX NSCLC) 4.37 µM | GI50 (UO-31 renal) > 100 µM | GI50 (OVCAR-3 ovarian) 4.23 µM
> 100 µM: TGI (NCI-H522 lung) | TGI (IGROV1 ovarian) | TGI (SF-295 CNS) | TGI (786-0 renal) | TGI (SF-268 CNS) | TGI (HT29 colon) | TGI (HCC-2998 colon) | TGI (SNB-75 CNS) | TGI (COLO 205 colon) | TGI (MOLT-4 leukemia) | TGI (MDA-MB-231 breast) | TGI (NCI-H23 lung) | TGI (BT-549 breast) | TGI (MCF7 breast) | TGI (KM12 colon) | TGI (M14 melanoma) | TGI (LOX IMVI melanoma) | TGI (RPMI-8226 leukemia) | TGI (PC-3 prostate) | TGI (UACC-257 melanoma) | TGI (CAKI-1 renal) | TGI (EKVX NSCLC) | TGI (UO-31 renal) | TGI (OVCAR-3 ovarian)
6.72 µM: TGI (SR leukemia)
67.1 µM: TGI (RXF 393 renal)
98.7 µM: TGI (HL-60(TB) leukemia)
5.07 µM: TGI (MDA-MB-435)
53.6 µM: TGI (NCI/ADR-RES ovarian)
